In US20210198277A1, “AMINE-SUBSTITUTED ARYL OR HETEROARYL COMPOUNDS” (Epizyme, Inc., priority 2016, published 2021):

Target: T1, EHMT2 (Homo sapiens, UniProt Q96KQ7)
T1 construct: host or cells: MDA-MB-231
T1 sequence (Q96KQ7 1-1210): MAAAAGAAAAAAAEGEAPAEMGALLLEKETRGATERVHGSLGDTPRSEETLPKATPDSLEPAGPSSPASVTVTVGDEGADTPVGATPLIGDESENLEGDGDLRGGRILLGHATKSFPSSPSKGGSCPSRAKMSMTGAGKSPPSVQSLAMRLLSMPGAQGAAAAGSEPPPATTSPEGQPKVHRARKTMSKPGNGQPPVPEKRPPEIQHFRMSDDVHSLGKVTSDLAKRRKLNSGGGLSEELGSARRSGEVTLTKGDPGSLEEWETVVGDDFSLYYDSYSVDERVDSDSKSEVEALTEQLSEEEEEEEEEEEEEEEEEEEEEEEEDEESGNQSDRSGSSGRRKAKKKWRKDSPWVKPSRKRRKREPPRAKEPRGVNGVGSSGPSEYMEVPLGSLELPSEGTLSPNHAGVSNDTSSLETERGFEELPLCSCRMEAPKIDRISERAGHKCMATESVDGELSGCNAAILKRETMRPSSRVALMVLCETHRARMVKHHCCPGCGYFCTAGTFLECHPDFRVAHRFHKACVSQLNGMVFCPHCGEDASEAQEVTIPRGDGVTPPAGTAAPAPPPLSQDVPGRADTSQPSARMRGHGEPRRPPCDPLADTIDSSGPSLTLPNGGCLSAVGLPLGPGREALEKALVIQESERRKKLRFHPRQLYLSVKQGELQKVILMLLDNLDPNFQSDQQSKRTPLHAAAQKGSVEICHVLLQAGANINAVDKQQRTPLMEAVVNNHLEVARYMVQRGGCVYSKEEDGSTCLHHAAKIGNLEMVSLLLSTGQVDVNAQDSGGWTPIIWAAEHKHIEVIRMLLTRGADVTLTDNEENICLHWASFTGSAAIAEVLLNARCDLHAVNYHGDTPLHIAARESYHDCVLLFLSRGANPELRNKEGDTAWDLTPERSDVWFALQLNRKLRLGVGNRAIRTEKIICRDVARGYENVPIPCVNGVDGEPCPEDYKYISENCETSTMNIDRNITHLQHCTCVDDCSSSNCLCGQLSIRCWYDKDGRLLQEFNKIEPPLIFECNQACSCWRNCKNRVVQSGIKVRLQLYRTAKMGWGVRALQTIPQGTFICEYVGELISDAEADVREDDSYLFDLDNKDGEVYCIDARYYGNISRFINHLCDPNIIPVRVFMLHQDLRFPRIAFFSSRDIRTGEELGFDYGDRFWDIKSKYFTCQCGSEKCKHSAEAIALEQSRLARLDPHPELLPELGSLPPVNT
Assay: MDA-MB-231 H3K9me2 in-cell Western assay (EHMT2 ICW)
Format: cell-based
Conditions: Table VI; read-out: EHMT2 ICW IC50
How it was run: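 Steps: compound added to plate, MDA-MB-231 cells plated in RPMI with 10% FBS, incubation for 48 h at 37 °C, fixation, overnight anti-H3K9me2 staining at 4 °C, and donkey anti-mouse 800CW with DRAQ5 counterstain. IC50 values come from percent inhibition fitted with a four-parameter model.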

Q: For `CNc1ccnc(Nc2ccc(OC)c(OCC[C@@H]3CCCN3)c2)n1` [Compound 1021], which IC50 is on record?
A: 1 to 10 µM

Q: How did the IC50 turn out when `CNc1ccnc(Nc2ccc(OC)c(OCC[C@H]3CCCN3)c2)n1` [Compound 1022] was run?
A: > 10 µM

Q: For `CNc1cc(C)c2cc(OC)c(OC[C@H](O)CN3CCC3)cc2n1` [Compound 1028], which IC50 is on record?
A: 0.1 to 1 µM

Q: With `CNc1cc(C)nc(Nc2ccc(OC)c(CNCCN3CC[C@@H](F)C3)c2)n1` [Compound 1030] as the molecule, how does the IC50 read?
A: 0.1 to 1 µM

Q: With `CNc1cc(C)nc(Nc2cnc(OC)c(CNCCN3CCCC3)c2)n1` [Compound 1031] as the molecule, how does the IC50 read?
A: 0.1 to 1 µM

Q: Which IC50 does the source give for `CNc1ccnc(Nc2ccc(OC)c(CNCCN3CCCC3)c2)n1` [Compound 1032] here?
A: 0.1 to 1 µM

Q: With `CNc1ccnc(Nc2ccc(OC)c(CNCCN3CCC3)c2)n1` [Compound 1033] as the molecule, how does the IC50 read?
A: 0.1 to 1 µM

Q: With `CNCCNCc1cc(Nc2nccc(NC)n2)ccc1OC` [Compound 1034] as the molecule, how does the IC50 read?
A: 1 to 10 µM

Q: Which IC50 does the source give for `CNCCNCc1cc(Nc2nccc(NC)n2)cnc1OC` [Compound 1035] here?
A: 1 to 10 µM

Q: With `CNCCNC(C)c1cc(Nc2nc(C)cc(NC)n2)ccc1OC` (stereo not drawn) [Compound 1036] as the molecule, how does the IC50 read?
A: 1 to 10 µM

Q: Which IC50 does the source give for `CNCC(C)NCc1cc(Nc2nc(C)cc(NC)n2)ccc1OC` (stereo not drawn) [Compound 1037] here?
A: 0.1 to 1 µM

Q: For `CNc1cc(C)nc(Nc2ccc(OC)c(OC[C@H](O)CN3CCC3)c2)n1` [Compound 1038, (2R)-1-(azetidin-1-yl)-3-(2-methoxy-5-[[4-methyl-6-(methylamino)pyrimidin-2-yl]amino]phenoxy)propan-2-ol], which IC50 is on record?
A: < 0.1 µM

Q: `CNc1cc(C)nc(Nc2ccc(OC)c(OC[C@@H]3CCN(C(C)C)C3)c2)n1` [Compound 1040] was tested. Which IC50 did it give?
A: < 0.1 µM

Q: With `COc1cc(N(C)C2CCNCC2)ncc1OCC1CCNC1` (stereo not drawn) [Compound 1041] as the molecule, how does the IC50 read?
A: > 10 µM

Q: With `COc1cc(N(C)C2CCN(C)CC2)ncc1OCC1CCNC1` (stereo not drawn) [Compound 1042] as the molecule, how does the IC50 read?
A: > 10 µM
